In brackets after ≈: the same amount, converted by molar mass. Blank lines part the entries; values can stand above or below the compound they belong to.
Legend:
[1] = In vivo pharmacokinetics in rats; details: rat
[2] = tested on: human colorectal cells (HRT-18); assay: In vitro cytotoxicity; type: cell-based; details: for safety margin: human, 2 h; for concentration not toxic to HRT-18 cells: MTS assay, two hours incubation
[3] = phosphate-buffered saline; cited from earlier work
[4] = PBS solubility screen; type: physicochemical
[5] = tested on: MRSA USA300; type: cell-based, Staphylococcus aureus; details: MRSA USA300, fourteen passages over two weeks
[6] = tested on: BHK-21; assay: In vitro cytotoxicity; type: cell-based, hamster; details: MTT assay
[7] = tested on: MRSA (2658 RCMB); assay: MIC by broth microdilution against MRSA clinical isolate 2658 RCMB; type: cell-based; details: Staphylococcus aureus
[8] = tested on: S. aureus NRS119; assay: MIC by broth microdilution against linezolid-resistant S. aureus NRS119; type: cell-based, Staphylococcus aureus; details: S. aureus NRS119, resistance to linezolid
[9] = tested on: MRSA USA300; assay: Time-kill assay against MRSA; type: cell-based, Staphylococcus aureus
[10] = tested on: S. aureus NRS107; assay: MIC by broth microdilution against mupirocin-resistant S. aureus NRS107; type: cell-based, Staphylococcus aureus; details: S. aureus NRS107, high-level resistance to mupirocin
[11] = tested on: S. aureus NRS384; type: cell-based, Staphylococcus aureus; details: S. aureus NRS384, resistance to macrolides and tetracyclines
[12] = tested on: S. aureus NRS119; details: cited from earlier work
[13] = in vivo; cited from earlier work

%F (oral bioavailability) ([1]; 25 mg/kg oral dose): not bioavailable orally
Compound: CCCCc1ccc(-c2nc(C)c(/C(C)=N/NC(=N)N)s2)cc1 [Compound 1a, reference compound]
safety margin [2]: 32 ×MIC

solubility at 2 h ([4]; Solubility limit): 2.2 µM (≈ 0.769 µg/mL)
Compound: C/C(=N\NC(=N)N)c1sc(-c2ccc(-c3ccccc3)cc2)nc1C [Compound 1b, reference compound]
times less soluble than lead compound 1a [3]: 24 times

improvement in aqueous solubility relative to pyrimidine analogue 1c [4]: 43 times
Compound: Cc1nc(-c2ccc(-c3ccccc3)cc2)sc1-c1nnc(NC(=N)N)o1 [Compound 22, 1-{5-(2-([1,1′-Biphenyl]-4-yl)-4-methylthiazol-5-yl)-1,3,4-oxadiazol-2-yl}guanidine]

Compound: Cc1nc(-c2ccc(-c3ccccc3)cc2)sc1-c1nnc(NC(=N)N2CCOCC2)o1 [Compound 26, N-{5-(2-([1,1′-Biphenyl]-4-yl)-4-methylthiazol-5-yl)-1,3,4-oxadiazol-2-yl}morpholine-4-carboximidamide]
concentration not toxic to HRT-18 cells [2]: 256 µg/mL
shift in MIC over fourteen passages [5]: No increase in MIC
tolerability against non-cancerous cell line BHK-21 [6]: highly tolerable

Compound: Cc1nc(-c2ccc(-c3ccccc3)cc2)sc1-c1nnc(NC(=N)N2CCN(C)CC2)o1 [Compound 27, N-{5-(2-([1,1′-Biphenyl]-4-yl)-4-methylthiazol-5-yl)-1,3,4-oxadiazol-2-yl}-4-methylpiperazine-1-carboximid-amide]
MIC [7]: 1.1 µg/mL (≈ 2.39 µM)
growth inhibition [8]: inhibited growth
MRSA CFU after 24 h ([9]; after 24 h, 4 × MIC, 37 °C): completely eradicated
mode of action, bacteriostatic or bactericidal ([9]; at the concentration tested (4 × MIC)): bactericidal
Cmax relative to MIC against MRSA (2658 RCMB) ([1]; in vivo, po, 25 mg/kg): nearly six-fold
concentration not toxic to HRT-18 cells [2]: 512 µg/mL
safety margin [2]: more than 400 ×MIC
growth inhibition [10]: inhibited growth
shift in MIC over fourteen passages [5]: No increase in MIC
growth inhibition [11]: inhibited growth
tolerability against non-cancerous cell line BHK-21 [6]: highly tolerable

Compound: CC(=O)NC[C@H]1CN(c2ccc(N3CCOCC3)c(F)c2)C(=O)O1 [linezolid]
MIC [12]: > 128 µg/mL

Compound: CCC[C@H](NC(=O)[C@@H]1[C@H]2CCC[C@H]2CN1C(=O)[C@@H](NC(=O)[C@@H](NC(=O)c1cnccn1)C1CCCCC1)C(C)(C)C)C(=O)C(=O)NC1CC1 [telaprevir]
oral bioavailability [13]: ≤ 3%
